Experiment [1] deals with bromodomain. The experiment in a line: at least one of the bromodomain cell assays of Example 57. The settings on record: at least one of the bromodomain cell assays described in Example 57; read-out: IC50 in at least one of the bromodomain cell assays. In kind it is cell-based.
Experiment [2] concerns MV-4-11 cells. The experiment can be described thus: Oncology cell growth assay MV-4-11 (CellTiter Glo). As to conditions: Homo sapiens, MV4-11, 72 h, read-out: Cell activity (IC50 μM) MV-4-11 3d-Growth. It counts as cell-based. The essentials:
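MV-4-11 AML cells (MLL-AF4), 3000 per well, exposed to 8-point 1:3 compound titration from 10 μM top concentration (0.2% DMSO) for 72 h. Viability by CellTiter Glo luminescence, normalized to DMSO controls; pIC50 from four-parameter curve fit.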

The target in experiment [3] is BRD4-BD12 (1-477) (Homo sapiens (Human), UniProt O60885). The experiment can be described thus: Alphascreen binding assay BRD4-BD12. As to conditions: BRD4(1 2) H4; read-out: Biochemical activity (IC50 μM) BRD4(1 2) H4. The essentials: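 First, compound was preincubated 1 h at room temperature with the His-tagged BRD4 protein (BD1 44-164 or tandem BD12 1-477) and acetylated H4 peptide. Next, donor and acceptor beads were added at 7.5 μg/ml final. After 30 min, AlphaScreen emission was recorded.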

Each structure is given as a SMILES string. Read-outs that look alike come from different tables or passages of the source.

`Cc1noc(C)c1-c1cnc2c(I)cn(CC3CCC(F)(F)CC3)c2c1` [P-0250, 4-[1-[(4,4-difluorocyclohexyl)methyl]-3-iodo-pyrrolo[3,2-b]pyridin-6-yl]-3,5-dimethyl-isoxazole]: the figures for the IC50 in experiment [1], in experiment [2] and in experiment [3] were below 10000 nM, below 1 µM and below 1 µM, respectively.
Turning to `Cc1noc(C)c1-c1cnc2c(I)cn(C(CC#N)C3CCCC3)c2c1` (stereo not drawn) [P-0251, 3-cyclopentyl-3-[6-(3,5-dimethylisoxazol-4-yl)-3-iodo-pyrrolo[3,2-b]pyridin-1-yl]propanenitrile], the results for the IC50 in experiment [1], in experiment [2] and in experiment [3] were below 10000 nM, below 1 µM and below 1 µM, respectively.
On to `Cc1noc(C)c1-c1cnc2c(-c3cnn(C(F)F)c3)cn(C(CC#N)C3CCCC3)c2c1` (stereo not drawn) [P-0252, 3-cyclopentyl-3-[3-[1-(difluoromethyl)pyrazol-4-yl]-6-(3,5-dimethylisoxazol-4-yl)pyrrolo[3,2-b]pyridin-1-yl]propanenitrile], for which the IC50 in experiment [1] was below 10000 nM; in experiment [2], below 1 µM; in experiment [3], below 1 µM.
On to `Cc1noc(C)c1-c1cnc2c(-c3cnn(CC(F)(F)F)c3)cn(CC3CCC(F)(F)CC3)c2c1` [P-0253, 4-[1[(4,4-difluorocyclohexyl)methyl]-3-[1-(2,2,2-trifluoroethyl)pyrazol-4-yl]pyrrolo[3,2-b]pyridin-6-yl]-3,5-dimethyl-isoxazole], for which the values for the IC50 in experiment [1], in experiment [2] and in experiment [3] were below 10000 nM, below 1 µM and below 1 µM, respectively.
On to `[2H]C([2H])(C1CC(F)(F)C1)n1cc(I)c2ncc(-c3c(C)noc3C)cc21` [P-0254, 4-[1-[dideuterio-(3,3-difluorocyclobutyl)methyl]-3-iodo-pyrrolo[3,2-b]pyridin-6-yl]-3,5-dimethyl-isoxazole], for which the IC50 is below 10000 nM in experiment [1], below 1 µM in experiment [2] and below 1 µM in experiment [3].
On to `[2H]C([2H])(C1CC(F)(F)C1)n1cc(-c2cn[nH]c2)c2ncc(-c3c(C)noc3C)cc21` [P-0255, 4-[1-[dideuterio-(3,3-difluorocyclobutyl)methyl]-3-(1H-pyrazol-4-yl)pyrrolo[3,2-b]pyridin-6-yl]-3,5-dimethyl-isoxazole], for which the IC50 in experiment [1] was below 10000 nM; in experiment [2], below 1 µM; in experiment [3] it was below 1 µM.
`Cc1noc(C)c1-c1cnc2c(Br)c[nH]c2c1` [P-0263, 4-(3-bromo-1H-pyrrolo[3,2-b]pyridin-6-yl)-3,5-dimethyl-isoxazole]: the IC50 was below 10000 nM in experiment [1] and below 1 µM in experiment [3].
As for `Cc1noc(C)c1-c1ccc2c(-c3ccc(C(=O)O)cc3)cn([C@@H](C)c3ccccn3)c2c1` [P-1030, 4-[6-(3,5-dimethylisoxazol-4-yl)-1-[(1S)-1-(2-pyridyl)ethyl]indol-3-yl]benzoic acid], the IC50 in experiment [2] (MV-4-11, 3d growth) is below 1 µM; in experiment [3], below 1 µM.
`Cc1noc(C)c1-c1ccc2c(-c3ccc(CC(=O)O)cc3)cn([C@@H](C)c3ccccn3)c2c1` [P-1031, 2-[4-[6-(3,5-dimethylisoxazol-4-yl)-1-[(1S)-1-(2-pyridyl)ethyl]indol-3-yl]phenyl]acetic acid]: the IC50 was below 1 µM in experiment [2] (MV-4-11, 3d growth) and below 1 µM in experiment [3].
With `Cc1noc(C)c1-c1cnc2c(-c3ccc(C4(C(=O)O)CC4)cc3)cn([C@H](c3ccccn3)C3CC3)c2c1` [P-1032, 1-[4-[1-[(S)-cyclopropyl(2-pyridyl)methyl]-6-(3,5-dimethylisoxazol-4-yl)pyrrolo[3,2-b]pyridin-3-yl]phenyl]cyclopropanecarboxylic acid], the IC50 was below 1 µM in experiment [2] (MV-4-11, 3d growth) and below 1 µM in experiment [3].
Consider `Cc1noc(C)c1-c1cnc2c(I)cn(C(c3ccccn3)C3CCOCC3)c2c1` (stereo not drawn) [P-1034, 4-[3-iodo-1-[2-pyridyl(tetrahydropyran-4-yl)methyl]pyrrolo[3,2-b]pyridin-6-yl]-3,5-dimethyl-isoxazole], for which the IC50 in experiment [2] (MV-4-11, 3d growth) was below 1 µM; in experiment [3], below 1 µM.
Regarding `COC(=O)c1ccc(-c2cn(C(c3ccccn3)C3CCOCC3)c3cc(-c4c(C)noc4C)cnc23)cc1` (stereo not drawn) [P-1035, methyl 4-[6-(3,5-dimethylisoxazol-4-yl)-1-[2-pyridyl(tetrahydropyran-4-yl)methyl]pyrrolo[3,2-b]pyridin-3-yl]benzoate], the IC50 is below 1 µM in experiment [2] (MV-4-11, 3d growth) and below 1 µM in experiment [3].
As to `Cc1noc(C)c1-c1cnc2c(-c3ccc(C(=O)O)cc3)cn(C(c3ccccn3)C3CCOCC3)c2c1` (stereo not drawn) [P-1036, 4-[6-(3,5-dimethylisoxazol-4-yl)-1-[2-pyridyl(tetrahydropyran-4-yl)methyl]pyrrolo[3,2-b]pyridin-3-yl]benzoic acid], the IC50 in experiment [2] (MV-4-11, 3d growth) was below 1 µM; in experiment [3] it was below 1 µM.
Take `Cc1noc(C)c1-c1cnc2c(-c3ccc(C(=O)O)c(F)c3)cn(C(c3ccccn3)C3CCCC3)c2c1` (stereo not drawn) [P-1037, 4-[1-[cyclopentyl(2-pyridyl)methyl]-6-(3,5-dimethylisoxazol-4-yl)pyrrolo[3,2-b]pyridin-3-yl]-2-fluoro-benzoic acid]: the IC50 was below 1 µM in experiment [2] (MV-4-11, 3d growth) and below 1 µM in experiment [3].
For `Cc1cc(-c2cn(C(c3ccccn3)C3CCCC3)c3cc(-c4c(C)noc4C)cnc23)ccc1C(=O)O` (stereo not drawn) [P-1038, 4-[1-[cyclopentyl(2-pyridyl)methyl]-6-(3,5-dimethylisoxazol-4-yl)pyrrolo[3,2-b]pyridin-3-yl]-2-methyl-benzoic acid], the IC50 in experiment [2] (MV-4-11, 3d growth) is below 1 µM; in experiment [3], below 1 µM.
For `COc1ncc(-c2cn(C(c3ccccc3)c3ccccn3)c3cc(-c4c(C)noc4C)ccc23)cn1` (stereo not drawn) [P-1039, 4-[3-(2-methoxypyrimidin-5-yl)-1-[phenyl(2-pyridyl)methyl]indol-6-yl]-3,5-dimethyl-isoxazole], the IC50 was below 1 µM in experiment [2] (MV-4-11, 3d growth) and below 1 µM in experiment [3].
With `Cc1noc(C)c1-c1ccc2c(-c3cnn(C)c3)cn(C(c3ccccc3)c3ccccn3)c2c1` (stereo not drawn) [P-1040, 3,5-dimethyl-4-[3-(1-methylpyrazol-4-yl)-1-[phenyl(2-pyridyl)methyl]indol-6-yl]isoxazole], the IC50 was below 1 µM in experiment [2] (MV-4-11, 3d growth) and below 1 µM in experiment [3].
Regarding `Cc1ccc(-c2cn(C(c3ccccc3)c3ccccn3)c3cc(-c4c(C)noc4C)ccc23)cn1` (stereo not drawn) [P-1041, 3,5-dimethyl-4-[3-(6-methyl-3-pyridyl)-1-[phenyl(2-pyridyl)methyl]indol-6-yl]isoxazole], the IC50 in experiment [2] (MV-4-11, 3d growth) is below 1 µM; in experiment [3], below 1 µM.
In the case of `Cc1noc(C)c1-c1ccc2c(-c3cnc(C4CC4)nc3)cn(C(c3ccccc3)c3ccccn3)c2c1` (stereo not drawn) [P-1042, 4-[3-(2-cyclopropylpyrimidin-5-yl)-1-[phenyl(2-pyridyl)methyl]indol-6-yl]-3,5-dimethyl-isoxazole], the IC50 in experiment [2] (MV-4-11, 3d growth) is below 1 µM; in experiment [3], below 1 µM.
Consider `Cc1noc(C)c1-c1ccc2c(-c3ccc(C(=O)O)c(F)c3)cn(C(c3ccccc3)c3ccccn3)c2c1` (stereo not drawn) [P-1043, 4-[6-(3,5-dimethylisoxazol-4-yl)-1-[phenyl(2-pyridyl)methyl]indol-3-yl]-2-fluoro-benzoic acid], for which the IC50 in experiment [2] (MV-4-11, 3d growth) is below 1 µM; in experiment [3], below 1 µM.
Consider `Cc1noc(C)c1-c1ccc2c(-c3ccc(C(=O)O)cc3F)cn(C(c3ccccc3)c3ccccn3)c2c1` (stereo not drawn) [P-1044, 4-[6-(3,5-dimethylisoxazol-4-yl)-1-[phenyl(2-pyridyl)methyl]indol-3-yl]-3-fluoro-benzoic acid], for which the IC50 in experiment [2] (MV-4-11, 3d growth) is below 1 µM; in experiment [3], below 1 µM.
Consider `Cc1cc(-c2cn(C(c3ccccc3)c3ccccn3)c3cc(-c4c(C)noc4C)ccc23)ccc1C(=O)O` (stereo not drawn) [P-1045, 4-[6-(3,5-dimethylisoxazol-4-yl)-1-[phenyl(2-pyridyl)methyl]indol-3-yl]-2-methyl-benzoic acid], for which the IC50 in experiment [2] (MV-4-11, 3d growth) is below 1 µM; in experiment [3] it was below 1 µM.
Consider `Cc1noc(C)c1-c1ccc2c(-c3cnn(CC(F)(F)F)c3)cn(C(c3ccccc3)c3ccccn3)c2c1` (stereo not drawn) [P-1046, 3,5-dimethyl-4-[1-[phenyl(2-pyridyl)methyl]-3-[1-(2,2,2-trifluoroethyl)pyrazol-4-yl]indol-6-yl]isoxazole], for which the IC50 in experiment [2] (MV-4-11, 3d growth) is below 1 µM; in experiment [3] it was below 1 µM.
`Cc1noc(C)c1-c1ccc2c(-c3ccc(C(=O)O)c(Cl)c3)cn(C(c3ccccc3)c3ccccn3)c2c1` (stereo not drawn) [P-1047, 2-chloro-4-[6-(3,5-dimethylisoxazol-4-yl)-1-[phenyl(2-pyridyl)methyl]indol-3-yl]benzoic acid]: the IC50 in experiment [2] (MV-4-11, 3d growth) is below 1 µM; in experiment [3], below 1 µM.
For the molecule `COc1cc(-c2cn(C(c3ccccn3)C3CCCC3)c3cc(-c4c(C)noc4C)cnc23)ccc1C(=O)O` (stereo not drawn) [P-1048, 4-[1-[cyclopentyl(2-pyridyl)methyl]-6-(3,5-dimethylisoxazol-4-yl)pyrrolo[3,2-b]pyridin-3-yl]-2-methoxy-benzoic acid], the IC50 in experiment [2] (MV-4-11, 3d growth) was below 1 µM; in experiment [3], below 1 µM.
Regarding `Cc1noc(C)c1-c1cnc2c(-c3ccc(C4(C(=O)O)CC4)cc3)cn(C(c3ccccn3)C3CCCC3)c2c1` (stereo not drawn) [P-1049, 1-[4-[1-[cyclopentyl(2-pyridyl)methyl]-6-(3,5-dimethylisoxazol-4-yl)pyrrolo[3,2-b]pyridin-3-yl]phenyl]cyclopropanecarboxylic acid], the IC50 in experiment [2] (MV-4-11, 3d growth) was below 1 µM; in experiment [3], below 1 µM.
Regarding `Cc1noc(C)c1-c1ccc2c(-c3cccc(CC(=O)O)c3)cn(C(c3ccccc3)c3ccccn3)c2c1` (stereo not drawn) [P-1050, 2-[3-[6-(3,5-dimethylisoxazol-4-yl)-1-[phenyl(2-pyridyl)methyl]indol-3-yl]phenyl]acetic acid], the IC50 in experiment [2] (MV-4-11, 3d growth) was below 1 µM; in experiment [3] it was below 1 µM.

The values are drawn from US10519177B2, “Heterocyclic compounds and uses thereof” (Plexxikon Inc., priority 2013, dated 2019).
